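Cultured in 96-well plates, cells were exposed to test compound for 48 hours across five concentrations. TGI denotes the concentration required for complete inhibition of growth.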 Where only a bound is given, the exact number is not on record here.

From PubChem BioAssay (NCI) come the findings set out here.

Common to all, as to experiment: NCI-60 cell line screen, 48 h
Test [1] relates to CCRF-CEM leukemia.
Test [2] has as its system DU-145 prostate.
The subject of test [3] is HCT-116 colon.
In test [4] the test system is HS 578T breast.
For test [5], the system named is IGROV1 ovarian.
In test [6] the test system is MALME-3M melanoma.
For test [7], the system named is MCF7 breast.
Test [8] concerns MOLT-4 leukemia.
Test [9] concerns NCI-H226 lung.
Test [10] deals with NCI-H23 lung.
The test system of test [11] is NCI-H522 lung.
Test [12] relates to OVCAR-8 ovarian.
The subject of test [13] is SF-295 CNS.
In test [14] the test system is SF-539 CNS.
Test [15] relates to SK-MEL-28 melanoma.
The test system of test [16] is SNB-19 CNS.

Regarding `CC1=CC(=O)N(n2c(-c3ccccc3)n[nH]c2=O)C1=O`, the TGI in [1], in test [2], in [3], in test [4], in [5] and in test [6] was > 100 µM throughout. Also, the TGI in [7], in test [8], in test [9], in test [10], in test [11] and in [12] was > 100 µM in each case. Further, the TGI in [13], in test [14], in [15] and in test [16] was > 100 µM throughout.
As for `Nc1cc(Cl)ccc1SSc1ccc(Cl)cc1N`, the TGI is > 100 µM in test [1]; 29.2 µM in test [2]; 21.7 µM in test [3]; 46.7 µM in test [4]; 25.5 µM in test [5]; 36.3 µM in test [6]. In addition, the TGI is 15.7 µM in [7]; > 100 µM in test [8]; 15.4 µM in test [9]; 20.4 µM in test [10]; 23.8 µM in [11]; > 100 µM in [12]. In addition, the TGI in test [13] was 25.6 µM; in [14], 31.5 µM; in test [15] it was 40.6 µM; in [16], > 100 µM.
Consider `CC(C)Cn1cnc2c(Cl)nc3ccccc3c21`, for which the TGI in test [1], in [2], in [3], in [4], in test [5] and in test [6] was > 100 µM throughout. Moreover, the TGI in test [7], in [8], in [9], in [10], in test [11] and in [12] was > 100 µM throughout. Moreover, the TGI in test [13], in [14], in [15] and in test [16] was > 100 µM in each case.
In the case of `Cc1cccc(C)c1N=Nc1ccc(O)c(CN(C)C)c1`, the TGI is > 100 µM in test [1]; > 100 µM in test [2]; > 100 µM in [3]; > 100 µM in test [4]; > 100 µM in [5]; 76.2 µM in test [6]. The TGI in test [7], in test [8], in [9], in test [10], in test [11] and in [12] was > 100 µM in each case. The TGI in test [13] is > 100 µM; in test [14], > 100 µM; in test [15], 60.6 µM; in [16] it was > 100 µM.
For `O=[N+]([O-])/C(Cl)=C/C(=C1/Nc2ccccc2O1)[N+](=O)[O-]`, the TGI is 53.6 µM in test [1]; 41.6 µM in test [2]; 28.6 µM in [3]; 84.1 µM in [4]; > 100 µM in [5]; 29.8 µM in test [6]. For the same compound, the TGI in test [7] was > 100 µM; in test [8] it was 87.2 µM; in test [9] it was 79.3 µM; in test [10], 54.4 µM; in test [11] it was 27 µM; in test [12], 40.5 µM. Besides, the TGI in test [13] was 73.7 µM; in test [14], 59.4 µM; in test [15], 35.9 µM; in test [16] it was 45.5 µM.
Consider `CC1(C)CCCCCCCCCC2CC2CCC(C)(C)C1=O` (configuration not stated), for which the TGI in test [1] is 53.3 µM; in test [2], 40.9 µM; in test [3] it was 31.8 µM; in test [4], 82.3 µM; in [5], > 100 µM; in test [6] it was 49 µM. Also, the TGI in test [7] was 30 µM; in test [8], 80.1 µM; in [9], 31.2 µM; in [10], > 100 µM; in test [11] it was 30 µM; in [12], 74.5 µM. The TGI in [13] turned out to be 33.9 µM; in test [14], 44.3 µM; in [15], 72.8 µM; in [16], 88.3 µM.
Regarding `CCC1CCC2c3c([nH]c4ccc(C)cc34)C3C(=O)N(N(C)C)C(=O)C3C2C1` (configuration not stated), the TGI was > 100 µM in [1]; > 100 µM in [2]; 52.9 µM in test [3]; 33 µM in [4]; > 100 µM in test [5]; 39.2 µM in [6]. Besides, the TGI was > 100 µM in test [7]; > 100 µM in test [8]; > 100 µM in [9]; > 100 µM in test [10]; 2.68 µM in [11]; > 100 µM in test [12]. Moreover, the TGI in test [13] is > 33.4 µM; in test [14], 45.5 µM; in [15], > 100 µM; in [16], > 100 µM.
Turning to `Cc1ccsc1C(=S)Nc1ccc(Cl)c(/C=N/OC(C)C)c1`, the TGI in test [1] is > 100 µM; in test [2], > 100 µM; in test [3], > 100 µM; in test [4], > 100 µM; in [5], > 100 µM; in test [6], 98.9 µM. Moreover, the TGI in [7] was 62.6 µM; in test [8], 35.2 µM; in test [9] it was > 100 µM; in test [10], > 100 µM; in test [11] it was > 100 µM; in test [12], > 100 µM. The TGI in test [13], in test [14], in [15] and in test [16] was > 100 µM throughout.
In the case of `CN(C)CC1CCC/C(=C\c2ccccc2)C1=O` (configuration not stated), the TGI in [1] is > 100 µM; in test [2], 28.6 µM; in test [3], 2.91 µM; in test [4] it was 9.87 µM; in test [5], 13.9 µM; in [6] it was 3.46 µM. The TGI in [7] was 2.18 µM; in test [8], > 100 µM; in test [9], 8.26 µM; in test [10], 22.8 µM; in test [11], 2.95 µM; in test [12], 14.7 µM. The TGI in test [13] worked out at 35.2 µM; in [14] it was 14.3 µM; in test [15], 6.04 µM; in test [16], 30.5 µM.
With `CCC12C=CCN3CCC4(c5cc(C(c6ccc(OC)cc6)C6Cc7ccccc7N6)c(OC)cc5N(C)C4C(O)(C(=O)OC)C1O)C32` (configuration not stated), the TGI in test [1] is 16.6 µM; in [2], > 100 µM; in test [3], > 100 µM; in test [4], > 100 µM; in test [5] it was 51.2 µM; in test [6] it was > 100 µM. The TGI in [7] is 28.3 µM; in [8], 18.2 µM; in test [9] it was > 100 µM; in test [10], > 100 µM; in test [11], 98 µM; in [12] it was > 100 µM. The TGI in [13] was > 100 µM; in [14] it was 78.4 µM; in test [15], > 100 µM; in [16] it was > 100 µM.
In the case of `COc1ccc(-c2nc3c(C(=O)NCCN(C)C)cccc3c3ccccc23)cc1`, the TGI stood at 10.3 µM in test [1]; 17.4 µM in test [2]; 11.6 µM in test [3]; 28.9 µM in test [4]; 14.6 µM in test [5]; 8.7 µM in test [6]. The TGI in test [7] was determined as 8.65 µM; in test [8], 6.55 µM; in test [9] it was 17.1 µM; in test [10], 19.6 µM; in test [11], 8.82 µM; in [12], 20.6 µM. For the same compound, the TGI is 4.83 µM in [13], 4.87 µM in [14], 3.71 µM in test [15] and 11.7 µM in test [16].
Take `O=[N+]([O-])C(/C=C(\Cl)[N+](=O)[O-])=C(N1CCCCC1)N1CCCCC1`: the TGI in [1] is 59 µM; in test [2] it was > 100 µM; in test [3] it was 62.4 µM; in test [4] it was > 100 µM; in test [5] it was 61.1 µM; in test [6], 21.4 µM. Also, the TGI is 18.9 µM in [7]; > 100 µM in [8]; > 100 µM in [9]; > 100 µM in [10]; > 100 µM in test [11]; > 100 µM in [12]. For the same compound, the TGI in test [13] was > 100 µM; in test [14] it was 56.7 µM; in test [15], > 100 µM; in test [16], > 100 µM.
